Laboratory results as given in US9540649B2, “Method for opening tight junctions” (The Provost, Fellows and Scholars of the College of the …, priority 2007, dated 2017).
“Also recorded” adds a separate entry of the source.

What was measured:
IMPDH−/− mice = assay: Electroretinographic analysis of IMPDH−/− mice after claudin-5 suppression and GTP injection; format: in vivo
Method: IMPDH−/− mice that had received a hydrodynamic injection of siRNA targeting claudin-5 were dark-adapted overnight and prepared for electroretinography under dim red light. Pupillary dilation was carried out by installation of 1% cyclopentalate and 2.5% phenylephrine. Animals were anesthetized by intraperitoneal injection of ketamine (2.08 mg per 15 g body weight) and xylazine (0.21 mg per 15 g body weight). Once the animal was anaesthetized, GTP was injected intraperitoneally. The ERG commenced ten minutes after administration of anesthetic. Standardised flashes of light were presented to the mouse in a Ganzfeld bowl to ensure uniform retinal illumination. The ERG responses were recorded simultaneously from both eyes by means of gold wire electrodes (Roland Consulting Gmbh) using Vidisic (Dr Mann Pharma, Germany) as a conducting agent and to maintain corneal hydration. The eye was maintained in a proposed position throughout the examination by means of a small plastic band placed behind the globe. Reference and ground electrodes were positioned subcutaneously, approximately 1 mm from the temporal canthus and anterior to the tail respectively. Body temperature was maintained at 37° C. using a heating device controlled by a rectal temperature probe. Responses were analysed using a RetiScan RetiPort electrophysiology unit (Roland Consulting Gmbh). The protocol was based on that approved by the International Clinical Standards Committee for human electroretinography.

C57/Bl6 mice = assay: Behavioural output after TRH injection in claudin-5 suppressed mice; format: in vivo
Method: The protocol of Example 1 was followed to produce transiently claudin-5 suppressed mice. 48 hours post-delivery of siRNA targeting claudin-5 or a non-targeting siRNA, a 200 μl of a solution containing 20 mg/kg Thyrotropin Releasing Hormone (TRH) was injected to the claudin-5 suppressed mice. TRH was injected in the tail vein and immediately, the behavioural output of mice was assessed by filming them in a clear Perspex box.

claudin-12 = assay: Claudin-12 staining in brain microvasculature after claudin-12 siRNA; format: in vivo, C57/Bl-6 mice; details: 48 hours post-injection; vs non-targeting control siRNA
claudin-1 = assay: Western blot analysis of claudin-1 expression after hydrodynamic tail vein delivery of claudin-1 siRNA; format: in vivo, C57/Bl-6 mice
occludin [1] = assay: Occludin immunohistochemistry in brain microvasculature after occludin siRNA; format: in vivo, C57/Bl-6 mice; details: 48 hour time-point
occludin [2] = assay: Western blot analysis of occludin expression after hydrodynamic tail vein delivery of occludin siRNA; format: in vivo, C57/Bl-6 mice
BBB = BBB permeability (albumin, immunoglobulin, Hoechst) following suppression of occludin; format: in vivo, C57/Bl-6 mice; details: for albumin extravasation, immunohistochemistry in brain vibratome sections: 24 hours post-injection; for passage of mouse immunoglobulins (IgG) into the brain: following suppression of occludin
From the text: The protocols used were identical to the protocols used in Example 1.

[3] = 48 hours post injection, vs non-targeting siRNA

Compound: Nc1nc2c(ncn2[C@@H]2O[C@H](COP(=O)(O)OP(=O)(O)OP(=O)(O)O)[C@@H](O)[C@H]2O)c(=O)[nH]1 [GTP]
- ERG rod response b-wave, left eye (IMPDH−/− mice; 11 month old IMPDH−/− mouse, after suppression of claudin-5 and GTP i.p., 2.48 uV before): 121 uV
- ERG rod response b-wave, right eye (IMPDH−/− mice; 11 month old IMPDH−/− mouse, after suppression of claudin-5 and GTP i.p., 50.8 uV before): 193 uV
- ERG rod tracings (IMPDH−/− mice; IMPDH−/− mice, after suppression of claudin-5 and GTP injection): increase significantly

Compound: NC(=O)[C@@H]1CCCN1C(=O)[C@H](Cc1cnc[nH]1)NC(=O)[C@@H]1CCC(=O)N1 [TRH, Thyrotropin Releasing Hormone]
- duration of cessation of mobility relative to non-targeting control mice (C57/Bl6 mice; 20 mg/kg TRH tail vein, 48 hours post delivery of siRNA targeting claudin-5): ≤ 5 times
- mobility / length of time mice remain immobile (C57/Bl6 mice; 20 mg/kg TRH, 48 hours post delivery of siRNA targeting claudin-5): significant cessation of mobility; also recorded: distinct increase in the length of time
- delivery of TRH (359.5 Da) across the BBB (C57/Bl6 mice; BBB opened with siRNA targeting claudin-5): significantly enhanced

Compound: CLDN12 siRNA (3): siRNA, target GUAACACGGCCUUCAAUUC; strands GUAACACGGCCUUCAAUUCUU and GAAUUGAAGGCCGUGUUACUU (SEQ ID No. 28, 29) (listed as RNA, chemistry not given here)
- claudin-12 expression at the microvessels of the brain, staining (claudin-12): decreased

Compound: CLDN12 siRNA (4): siRNA, target GGUCUUUACCUUUGACUAU; strands AAUCUUUACCUUUGACUAUUU and AUAGUCAAAGGUAAAGAUUUU (SEQ ID No. 30, 31) (listed as RNA, chemistry not given here)
- claudin-12 expression at the microvessels of the brain, staining (claudin-12): decreased

Compound: claudin-1 siRNA (1): siRNA, target GCAAAGCACCGGGCAGAUA; sense AUAGACGGGCCACGAAACGUU, anti-sense CGUUUCGUGGCCCGUCUAUUU (SEQ ID NO: 9, 10) (listed as RNA, chemistry not given here)
- claudin-1 expression, Western blot (claudin-1; 24 hours post-injection): not evident
- claudin-1 expression, Western blot (claudin-1; 48 hours post-injection): significantly decrease claudin-1 expression

Compound: claudin-1 siRNA (2): siRNA, target GAACAGUACUUUGCAGGCA; sense ACGGACGUUUCAUGACAAGUU, anti-sense CUUGUCAUGAAACGUCCGUUU (SEQ ID NO: 11, 12) (listed as RNA, chemistry not given here)
- claudin-1 expression, Western blot (claudin-1; 24 hours post-injection): decreased

Compound: claudin-1 siRNA (4): siRNA, target UUUCAGGUCUGGCGACAUU; sense UUACAGCGGUCUGGACUUUUU, anti-sense AAAGUCCAGACCGCUGUAAUU (SEQ ID NO: 13, 14) (listed as RNA, chemistry not given here)
- claudin-1 expression, Western blot (claudin-1; 24 hours post-injection): decreased
- claudin-1 expression, Western blot (claudin-1; 48 hours post-injection): suppression was only evident

Compound: occludin siRNA (1): siRNA, target GUUAUAAGAUCUGGAAUGU; sense UGUAAGGUCUAGAAUAUUGUU, anti-sense CAAUAUUCUAGACCUUACAUU (SEQ ID NO: 15, 16) (listed as RNA, chemistry not given here)
- occludin staining pattern in brain microvasculature (occludin [1]): discontinuous pattern of staining was also evident
- occludin expression, Western blot (occludin [2]; [3]): significantly decreased

Compound: occludin siRNA (2): siRNA, target GAUAUUACUUGAUCGUGAU; sense UAGUGCUAGUUCAUUAUAGUU, anti-sense CUAUAAUGAACUAGCACUAUU (SEQ ID NO: 17, 18) (listed as RNA, chemistry not given here)
- occludin staining pattern in brain microvasculature (occludin [1]): discontinuous pattern of staining was also evident
- occludin expression, Western blot (occludin [2]; [3]): significantly decreased

Compound: occludin siRNA (3): siRNA, target CAAAUUAUCGCACAUCAAG; sense GAACUACACGCUAUUAAACUU, anti-sense GUUUAAUAGCGUGUAGUUCUU (SEQ ID NO: 19, 20) (listed as RNA, chemistry not given here)
- occludin staining pattern in brain microvasculature (occludin [1]): returned to levels similar to those observed in the non-targeting controls
- albumin extravasation, immunohistochemistry in brain vibratome sections (BBB): extravascular albumin
- albumin extravasation, immunohistochemistry in brain vibratome sections (BBB; listed as occludin siRNA 3): albumin deposition occurred
- passage of mouse immunoglobulins (IgG) into the brain (BBB): no extravasation of immunoglobulins

Compound: occludin siRNA (4): siRNA, target AGAUGGAUCGGUAUGAUAA; sense AAUAGUAUGGCUAGGUAGAUU, anti-sense UCUACCUAGCCAUACUAUUUU (SEQ ID NO: 21, 22) (listed as RNA, chemistry not given here)
- occludin staining pattern in brain microvasculature (occludin [1]): returned to levels similar to those observed in the non-targeting controls
- albumin extravasation, immunohistochemistry in brain vibratome sections (BBB): extravascular albumin
- albumin extravasation, immunohistochemistry in brain vibratome sections (BBB; listed as occludin siRNA 4): albumin deposition occurred
- passage of mouse immunoglobulins (IgG) into the brain (BBB): no extravasation of immunoglobulins
- occludin expression, Western blot (occludin [2]; 24 hours post injection): decrease
